Common to all, as to type: cell-based
The subject of assay [1] is CD44. The assay is described as follows: CD44 cell surface shedding (Western blot of conditioned media). The conditions noted are these: serum-starved U-87, 300 ug/ml, 24 hours. On the procedure:
Decreased cell migration and adhesion on HA was observed when U-87 cells were pretreated with the PCK3145 derivative. This can be interpreted as either a potential downregulation of CD44 expression at the cell surface or by a potential cell surface shedding. The latter hypothesis was tested by incubating serum-starve U-87 cells for 24 hours with the PCK3145 derivative (300 ug/ml), a concentration known to antagonize MMP secretion. The conditioned media was then TCA-precipitated and Westernblotting an immunodetection for a 75 kDa immunoreactive protein using the anti-CD44 antibody was performed. […] This effect is also shown in parallel with MT1-MMP-transfected cells. Such effect has been already reported by many groups and is established as one of the MT1-MMP-mediated functions in the regulation of the ECM adhesion. […] This induction has subsequently been reproduced below. Altogether, these observations provide a rational for the diminished cell migration/adhesion to HA.
A general note: A western blot detects proteins with antibodies after separation by electrophoresis.

The subject of assay [2] is MMP-9. The experiment in a line: Gelatin zymography of MatLyLu cell culture media. Particulars: MatLyLu cells, 500 ug/ml and 1 mg/ml, 50 ug/ml collagen type-I, serum free, 72 hrs. On the procedure: Zymography. Zymography is a technique generally used to analyze the activity of matrix metalloproteinases (MMPs) in biological samples. It involves the electrophoretic separation of proteins under denaturing (Sodium Dodecyl Sulfate (SDS)) but non-reducing conditions through a polyacrylamide gel containing gelatin (for example, 10% gel containing 1 mg/ml gelatin for MMP-9 and MMP-2 assays). The resolved proteins are re-natured by exchanging SDS with a non-ionic detergent such as Triton X-100 and the gel is incubated in an incubation buffer for activation of MMP-2 and MMP-9 (for example at 37° C. for 18 hrs). The gel is stained with Coomassie blue and the MMP-2 and MMP-9 bands may be visualized as clear bands against a blue background (i.e., the MMPs degrade the gelatin and are visualized as clear bands; pro MMP-2 is 68 kDa and pro-MMP-9 is 92 kDa). These bands can be quantified using densitometry. For example, prior to stimulation, quiescent HUVEC were serum-starved for 16 h in the presence or absence of PCK3145 or PD98059 and then stimulated with VEGF. […] Gelatinolytic activity was detected as unstained bands on a blue background. […]
The media were collected after 72 hours of exposure to the PCK3145 derivative and subjected to gelatin zymography. […] The band intensities were determined using the Image Quant software (version 5.0) from molecular Dynamics. […]

For assay [3], the system named is glioma cells (U-87). The experiment in a line: SEAP gene-reporter assay (Mercury Profiling Kit). On the procedure:
In order to investigate the potential intracellular pathways triggered by the PCK3145 derivative, a gene-reporter assay using the SEAP (Secreted Alkaline Phosphatase) Mercury Profiling Kit (CLONTECH) was performed in glioma cells (U-87). This assay enables the monitoring of transcription factors that are triggered by a particular experimental condition by assaying the alkaline phosphatase activity in the extracellular media.
Background: A reporter such as luciferase makes a cellular process visible.

In assay [4] the test system is ERK. The assay is described as follows: VEGF-induced ERK phosphorylation in BAEC. Particulars: BAEC (not shown).
For assay [5], the system named is ERK. The assay is described as follows: Intrinsic effect on ERK phosphorylation (Western blot). On the procedure: The induction of the MAPK pathway by the PCK3145 derivative is further confirmed by the rapid and transient induction of ERK phosphorylation between 5-10 minutes (FIG. 8B) and is shown to be dose-dependent (FIG. 8C). Finally, the effects of the PCK3145 derivative were also compared to those of a scrambled peptide.

Where no end group is shown, it is not given here.

As for “EWQTDNCETCTCYET (cysteine pairing not given here) [PCK3145 derivative, PCK3145 derivative with acetylaminomethyl groups on the three cysteines]”, the “CD44 cell surface shedding” value in assay [1] is on record as “increased”. Besides, the “MMP-9 secreted in the cell culture media (zymography)” value in assay [2] is “dose-dependent reduction”. Further, in assay [3], the “MAPK/JNK pathway (SRE), SEAP reporter” value is “triggers significantly”; the “NFkB pathway, SEAP reporter” value is “triggers significantly”; the “secretion of the constitutively expressed SEAP” value is reported as “inhibited”. In addition, the “ERK phosphorylation induced by VEGF” value in assay [4] is “inhibitory effect was confirmed”. Also, in assay [5] (dose-response), the “induction of ERK phosphorylation, dose dependence” value is given as “dose-dependent”. Also, in assay [5] (time-course), the “time of rapid and transient induction of ERK phosphorylation” value fell in the range of 5 to 10 min.

The values are drawn from patent US20080200393A1, “Method and Composition For Treating Angiogenesis and For Preventing Cancer Progression and Metastasis Comprising a Prostate Secretory Protein (Psp94) Family Member” (Ambrillia Biopharma Inc., priority 2004, published 2008).
